Read-outs that look alike come from different tables or passages of the source. Marks after values point to notes of the source that are not given here.
Experiments:
[1] = Hydrolytic stability tests of tetrazines; format: physicochemical
Excerpt: This solution was filtered and, the decrease of the absorption band at 525 nm was monitored using UV spectroscopy.

[2] = Reactivity of tetrazines towards trans-cyclooct-4-ene-1-ol (competition experiment); conditions: reference tetrazine 5; reaction with trans-cyclooct-4-ene-1-ol (axial isomer)
Protocol: A competition experiment was performed to determine the reactivity ratio of a specific tetrazine and 3-(5-acetamido-2-pyridyl)-6-(2-pyridyl)-1,2,4,5-tetrazine (that was chosen as the reference tetrazine), in the inverse-electron demand Diels-Alder reaction with trans-cyclooct-4-ene-1-ol (“minor” isomer with OH in axial position, see: Whitham et al. J. Chem. Soc. (C), 1971, 883-896)).
To acetonitrile (0.100 mL) was added 5 μL of a solution of the specific tetrazine in DMSO (25 mM) and 5 μL of a solution of the reference tetrazine in DMSO (25 mM). This mixture was diluted with water (0.9 mL), and the absolute amounts of both tetrazines were determined by HPLC-MS/PDA analysis. Subsequently, a solution of trans-cyclooct-4-ene-1-ol (axial isomer) in DMSO (25 μL 2.5 mM) was slowly added, and the mixture was stirred for 5 min. Again, the absolute amounts of both tetrazines were determined by HPLC-MS/PDA analysis, and conversions for both tetrazines was calculated. From these conversions, the reactivity ratio (R=k2,TCO/k2,Ref) of both tetrazines was calculated using the mathematical procedure from Ingold and Shaw (J. Chem. Soc., 1927, 2918-2926).

[3] = Second-order rate constant determination of trans-cyclooctene derivatives with tetrazine; conditions: UV-visible spectroscopy in acetonitrile at 20° C.
Protocol: The kinetics of the inverse-electron demand Diels-Alder reaction of a trans-cyclooctene derivative with 3-(5-acetamido-2-pyridyl)-6-(2-pyridyl)-1,2,4,5-tetrazine, performed in acetonitrile at 20° C., was determined using UV-visible spectroscopy. A cuvette was filled with acetonitrile (3 mL) and equilibrated at 20° C. 3-(5-Acetamido-2-pyridyl)-6-(2-pyridyl)-1,2,4,5-tetrazine (2.50×10^−7 mol) was added, followed by the trans-cyclooctene derivative (2.50×10^−7 mol). The decay of the absorption at λ=540 nm was monitored, and from this curve the second-order rate constant, k2, was determined assuming second order rate kinetics.

[4] = Stability of trans-cyclooctene derivatives in PBS; conditions: PBS buffer
Protocol: (§1) 10 μL of a solution of the specific trans-cyclooctene derivative in dioxane (25 mM) was diluted with PBS buffer (3 mL), and this solution was stored at 20° C. in the dark.
(§2) The fate of the TCO compound was monitored by HPLC-MS analysis, and an estimation of the half-life time was made based on the release of the model prodrug.

[5] = tested on: A431 squamous carcinoma cells; test: Cell proliferation assay (MTT); format: cell-based; conditions: Homo sapiens
[6] = Reactivity of tetrazines towards trans-cyclooct-4-ene-1-ol (competition experiment); conditions: values marked *: 50:50 mixture of PBS and acetonitrile; reference tetrazine 5
[7] = Activation of doxorubicin prodrugs (release of doxorubicin); conditions: after 1 hr at 20° C.
Protocol: […] Next, […](E)-cyclooctene-doxorubicin conjugate (64, 2.67×10^−5 g; 2.50×10^−8 mol) was added.
[…] Next, (E)-cyclooctene-doxorubicin conjugate (68, 2.67×10^−5 g; 2.50×10^−8 mol) was added.

physchem = conditions: buffer
Protocol: as §1, §2

[8] = values marked *: 50:50 mixture of PBS and acetonitrile
[9] = stability in PBS at 20° C. t1/2, PBS, 20° C.
[10] = stability in PBS t1/2, PBS, 37° C.

Nc1ccc(-c2nnc(-c3ccccn3)nn2)nc1
half-life at 83 µM ([1]; PBS buffer, PBS, 20° C.): 340 h | Reactivity ratio (R = k2,TZ/k2,Ref) [2]: 0.4

O=C1CCCC(=O)N1c1ccc(-c2nnc(-c3ccccn3)nn2)nc1
half-life at 83 µM ([1]; PBS buffer, PBS, 20° C.): 24 h | Reactivity ratio (R = k2,TZ/k2,Ref) [2]: 1.6

c1cc(-c2nnc(-c3ccsc3)nn2)cs1
half-life at 83 µM [1, 8]: > 300 h

Fc1ccc(-c2nnc(-c3ccc(F)cn3)nn2)nc1
half-life at 83 µM ([1]; PBS buffer, PBS, 20° C.): 115 h

FC(F)(F)c1ccc(-c2nnc(-c3ccc(C(F)(F)F)cn3)nn2)nc1
half-life at 83 µM [1, 8]: 3.6 h

CCCC(=O)Nc1ccc(-c2nnc(-c3ccc(C(F)(F)F)cn3)nn2)nc1
half-life at 83 µM [1, 8]: 35 h

CCCC(=O)Nc1ccc(-c2nnc(-c3ncccn3)nn2)nc1
half-life at 83 µM ([1]; PBS buffer, PBS, 20° C.): 3.2 h | Reactivity ratio (R = k2,TZ/k2,Ref) [2]: 2.7

CCCC(=O)Nc1ccc(-c2nnc(-c3ccc(F)cn3)nn2)nc1
half-life at 83 µM ([1]; PBS buffer, PBS, 20° C.): 117 h | Reactivity ratio (R = k2,TZ/k2,Ref) [2]: 0.95

c1cnc(-c2nnc(-c3cnccn3)nn2)cn1
half-life at 83 µM ([1]; PBS buffer, PBS, 20° C.): 0.68 h | Reactivity ratio (R = k2,TZ/k2,Ref) [2]: 1.5

c1cncc(-c2nnc(-c3cccnc3)nn2)c1
half-life at 83 µM ([1]; PBS buffer, PBS, 20° C.): > 150 h | Reactivity ratio (R = k2,TZ/k2,Ref) [2]: 0.19

c1cc(-c2nnc(-c3ccncc3)nn2)ccn1
half-life at 83 µM ([1]; PBS buffer, PBS, 20° C.): 2.4 h | Reactivity ratio (R = k2,TZ/k2,Ref) [2]: 0.83

c1csc(-c2nnc(-c3cccs3)nn2)c1
half-life at 83 µM [1, 8]: > 300 h

NCc1ccc(-c2nncnn2)cc1
half-life at 83 µM ([1]; PBS buffer, PBS, 20° C.): 183 h | Reactivity ratio (R = k2,TZ/k2,Ref) [2]: 0.77

Nc1ccc(-c2nnc(-c3ccccc3)nn2)cc1
half-life at 83 µM [1, 8]: > 300 h

Nc1cccc(-c2nnc(-c3ccccc3)nn2)c1
half-life at 83 µM [1, 8]: > 300 h

CCCNC(=O)c1ccc(-c2nnc(-c3ccccn3)nn2)nc1
half-life at 83 µM ([1]; PBS buffer, PBS, 20° C.): 4 h

c1ccc(-c2nnc(-c3ccccc3)nn2)cc1
half-life at 83 µM [1, 8]: > 300 h

c1ccc(-c2nncnn2)nc1
half-life at 83 µM ([1]; PBS buffer, PBS, 20° C.): 2.7 h

CCCC(=O)Nc1ccc(-c2nncnn2)nc1
half-life at 83 µM ([1]; PBS buffer, PBS, 20° C.): 10.3 h | Reactivity ratio (R = k2,TZ/k2,Ref) [2]: 2.8

CCCC(=O)Nc1ccc(-c2nnc(C)nn2)nc1
half-life at 83 µM ([1]; PBS buffer, PBS, 20° C.): 300 h | Reactivity ratio (R = k2,TZ/k2,Ref) [2]: 0.18

CCCNC(=O)c1ccc(-c2nnc(-c3ncccn3)nn2)nc1
half-life at 83 µM ([1]; PBS buffer, PBS, 20° C.): 0.42 h | Reactivity ratio (R = k2,TZ/k2,Ref) [2]: 2

c1c[nH]c(-c2nnc(-c3ccc[nH]3)nn2)c1
half-life at 83 µM [1, 8]: > 300 h

c1c[nH]c(-c2nnc(-c3ncc[nH]3)nn2)n1
Reactivity ratio (R = k2,TZ/k2,Ref) [2]: 1.2

N[C@H]1CC/C=C/CC[C@H]1NC(=O)Oc1ccccc1 (relative stereo) [compound 36, cis-(E)-phenyl(8-aminocyclooct-4-en-1-yl)carbamate]
rate contant* k2 [3]: 240 M⁻¹ s⁻¹ | half-life at 83 µM [4]: 27 h

NC1CC/C=C/CCC1NC(=O)Nc1ccccc1 (stereo not drawn) [47 major, cis phenyl((E)-8-aminocyclooct-4-en-1-yl)urea]
half-life at 83 µM [4]: > 480 h

COc1cccc2c1C(=O)c1c(O)c3c(c(O)c1C2=O)C[C@@](O)(C(=O)CO)C[C@@H]3O[C@H]1C[C@H](N)[C@H](O)[C@H](C)O1 [Dox, Doxorubicin, reference compound]
IC50 ([5]; A-431, A431 cell line, 6 h incubation at 37° C. followed by medium replacement, read-out: IC50): 38 ± 3 nM

c1ccc(-c2nnc(-c3ccccn3)nn2)nc1 [compound 2, 3,6-bis(2-pyridyl)-1,2,4,5-tetrazine]
half-life at 83 µM ([1]; PBS buffer, PBS, 20° C.): 44 h

CC(=O)Nc1ccc(-c2nnc(-c3ccccn3)nn2)nc1 [compound 5, 3-(5-acetamido-2-pyridyl)-6-(2-pyridyl)-1,2,4,5-tetrazine]
half-life at 83 µM ([1]; PBS buffer, PBS, 20° C.): 80 h | Reactivity ratio (R = k2,TZ/k2,Ref) [2]: 1

Cc1nnc(-c2ccccn2)nn1 [compound 7, 3-(2-pyridyl)-6-methyl-1,2,4,5-tetrazine]
half-life at 83 µM ([1]; PBS buffer, PBS, 20° C.): 230 h | Reactivity ratio (R = k2,TZ/k2,Ref) [2]: 0.25

Nc1ccccc1-c1nnc(-c2ccccc2N)nn1 [compound 9, 3,6-bis(2-aminophenyl)-1,2,4,5-tetrazine]
half-life at 83 µM [1, 8]: > 300 h | Reactivity ratio (R = k2,TZ/k2,Ref) [6]: <0 .01*

Oc1ccc(-c2nnc(-c3ccc(O)cc3)nn2)cc1 [compound 11, 3,6-bis(4-hydroxyphenyl)-1,2,4,5-tetrazine]
half-life at 83 µM [1, 8]: > 300 h

Nc1ccc(-c2nnc(-c3ccc(N)cc3)nn2)cc1 [compound 13, 3,6-bis(4-aminophenyl)-1,2,4,5-tetrazine]
half-life at 83 µM [1, 8]: > 300 h

NCc1nnc(CN)nn1 [compound 20, 3,6-bis(aminomethyl)-1,2,4,5-tetrazine]
half-life at 83 µM ([1]; PBS buffer, PBS, 20° C.): 16 h

COc1cc(COC(=O)NC2CC/C=C/CCC2N)cc(OC)c1OC (stereo not drawn) [compound 37, cis-(E)-3,4,5-trimethoxybenzyl(8-aminocyclooct-4-en-1-yl)carbamate]
rate contant* k2 [3]: 300 M⁻¹ s⁻¹ | half-life at 83 µM [4]: > 240 h

Cc1ccccc1OC(=O)NC1CC/C=C/CCC1N (stereo not shown) [compound 39]
half-life at 83 µM [4]: 192 h

COc1ccccc1OC(=O)NC1CC/C=C/CCC1N (stereo not shown) [compound 41]
half-life at 83 µM [4]: 21 h

Cc1cccc(C)c1OC(=O)NC1CC/C=C/CCC1N (stereo not shown) [compound 43]
half-life at 83 µM [4]: > 480 h

CC(C)(C)c1ccccc1OC(=O)NC1CC/C=C/CCC1N (stereo not shown) [compound 45]
half-life at 83 µM [4]: > 480 h

NC1/C=C/CCCCC1NC(=O)Oc1ccccc1 (stereo not drawn) [compound 56, trans phenyl(E)-2-aminocyclooct-3-en-1-yl carbamate]
half-life at 83 µM [4]: 120 h

O=C(Oc1ccccc1)N1C/C=C/CNCC1 [compound 61, (E)-phenyl 2,3,4,5-tetrahydro-1,4-diazocine-1(8H)-carboxylate]
rate contant* k2 [3]: 47 M⁻¹ s⁻¹ | half-life at 83 µM [4]: > 480 h

COc1cccc2c1C(=O)c1c(O)c3c(c(O)c1C2=O)C[C@@](O)(C(=O)CO)C[C@@H]3OC1CC(NC(=O)OCc2ccc(CC(=O)NC3CC/C=C/CCC3N)cc2)[C@H](O)C(C)O1 (stereo partly shown) [compound 64, (E)-cyclooctene-doxorubicin conjugate]
doxorubicin released ([7]; with 3,6-Diphenyl-1,2,4,5-tetrazine): 48% | doxorubicin released ([7]; with 3-(5-Acetamido-2-pyridyl)-6-(2-pyridyl)-1,2,4,5-tetrazine (5)): 30% | doxorubicin released ([7]; with 3-(5-Butyramido-2-pyridyl)-6-(2-pyrimidyl)-1,2,4,5-tetrazine): 20% | doxorubicin released ([7]; with 3-Methyl-6-(2-pyridyl)-1,2,4,5-tetrazine (7)): 52% | doxorubicin released ([7]; with 4-(1,2,4,5-Tetrazin-3-yl)phenylmethanamine): 50% | IC50 ([5]; A-431, 6 h, A431 cell line, 6 h incubation at 37° C. followed by medium replacement): 128 ± 17 nM | IC50 ([5]; A-431, 6 h, A431 cell line, in combination with tetrazine 29 (10 μM), 6 h incubation at 37° C. followed by medium replacement): 49 ± 4 nM | IC50 ([5]; A-431, A431 cells, combination of the prodrug 64 and tetrazine 29): 49 ± 4 nM | IC50 ([5]; A-431, A431 cells, prodrug alone): 128 nM | half-life (physchem; [9]): 24 h | half-life (physchem; [10]): 3.6 h

COc1cccc2c1C(=O)c1c(O)c3c(c(O)c1C2=O)C[C@@](O)(C(=O)CO)C[C@@H]3OC1CC(NC(=O)OCc2cc(C)c(CC(=O)NC3CC/C=C/CCC3N)c(C)c2)[C@H](O)C(C)O1 (stereo partly shown) [compound 68, (E)-cyclooctene-doxorubicin conjugate]
half-life (physchem; [9]): 624 h | half-life (physchem; [10]): 149 h

Reference: US20160151505A1 (KONINKLIJKE PHILIPS N.V., priority 2011, published 2016)
